# Assay results taken from article PMC11247499, “2,8-Disubstituted-1,5-naphthyridines as Dual Inhibitors of Plasmodium falciparum Phosphatidylinositol-4-kinase and Hemozoin Formation with In Vivo Efficacy” (Journal of Medicinal Chemistry, 2024).
# Like-named read-outs stand apart in the source and are kept apart here.
# Tests used:
# [1] = tested on: P. falciparum NF54 strain; experiment: Antiplasmodial activity, parasite lactate dehydrogenase assay, NF54; type: cell-based, Plasmodium falciparum; details: parasite lactate dehydrogenase assay over 72 h, read-out: Pf IC50 ± SD NF54
# [2] = Solubility, miniaturized shake flask method; details: aqueous solution
# PvPI4K = PvPI4K (Plasmodium vivax, UniProt A5KB26); experiment: biochemical; details: purified recombinant PvPI4K, 10 μM ATP, ADP-Glo; mean of N ≥ 2; read-out: PvPI4K IC50 ± SD
# [3] = tested on: Chinese Hamster Ovary (CHO) cell line; experiment: cells; type: cell-based; details: MTT assay over 48h, read-out: CHO IC50
# [4] = tested on: multidrug-resistant strain, K1; experiment: Antiplasmodial activity, parasite lactate dehydrogenase assay, K1; type: cell-based, Plasmodium falciparum; details: parasite lactate dehydrogenase assay over 72 h, read-out: Pf IC50 ± SD K1
# β-hematin (βH) formation = experiment: NP-40 mediated cell-free β-hematin assay; details: read-out: β-hematin IC50
# [5] = tested on: P. falciparum PI4K conditional knockdown line; experiment: microbe, parasite or virus in culture; type: cell-based, Plasmodium falciparum
# [6] = Plasmodium falciparum, NF54, 72 h
# [7] = Plasmodium falciparum, K1, 72 h
# [8] = cell-free NP-40 detergent-mediated assay, n = 2
# PvPI4K, sequence (A5KB26 entry or part of it): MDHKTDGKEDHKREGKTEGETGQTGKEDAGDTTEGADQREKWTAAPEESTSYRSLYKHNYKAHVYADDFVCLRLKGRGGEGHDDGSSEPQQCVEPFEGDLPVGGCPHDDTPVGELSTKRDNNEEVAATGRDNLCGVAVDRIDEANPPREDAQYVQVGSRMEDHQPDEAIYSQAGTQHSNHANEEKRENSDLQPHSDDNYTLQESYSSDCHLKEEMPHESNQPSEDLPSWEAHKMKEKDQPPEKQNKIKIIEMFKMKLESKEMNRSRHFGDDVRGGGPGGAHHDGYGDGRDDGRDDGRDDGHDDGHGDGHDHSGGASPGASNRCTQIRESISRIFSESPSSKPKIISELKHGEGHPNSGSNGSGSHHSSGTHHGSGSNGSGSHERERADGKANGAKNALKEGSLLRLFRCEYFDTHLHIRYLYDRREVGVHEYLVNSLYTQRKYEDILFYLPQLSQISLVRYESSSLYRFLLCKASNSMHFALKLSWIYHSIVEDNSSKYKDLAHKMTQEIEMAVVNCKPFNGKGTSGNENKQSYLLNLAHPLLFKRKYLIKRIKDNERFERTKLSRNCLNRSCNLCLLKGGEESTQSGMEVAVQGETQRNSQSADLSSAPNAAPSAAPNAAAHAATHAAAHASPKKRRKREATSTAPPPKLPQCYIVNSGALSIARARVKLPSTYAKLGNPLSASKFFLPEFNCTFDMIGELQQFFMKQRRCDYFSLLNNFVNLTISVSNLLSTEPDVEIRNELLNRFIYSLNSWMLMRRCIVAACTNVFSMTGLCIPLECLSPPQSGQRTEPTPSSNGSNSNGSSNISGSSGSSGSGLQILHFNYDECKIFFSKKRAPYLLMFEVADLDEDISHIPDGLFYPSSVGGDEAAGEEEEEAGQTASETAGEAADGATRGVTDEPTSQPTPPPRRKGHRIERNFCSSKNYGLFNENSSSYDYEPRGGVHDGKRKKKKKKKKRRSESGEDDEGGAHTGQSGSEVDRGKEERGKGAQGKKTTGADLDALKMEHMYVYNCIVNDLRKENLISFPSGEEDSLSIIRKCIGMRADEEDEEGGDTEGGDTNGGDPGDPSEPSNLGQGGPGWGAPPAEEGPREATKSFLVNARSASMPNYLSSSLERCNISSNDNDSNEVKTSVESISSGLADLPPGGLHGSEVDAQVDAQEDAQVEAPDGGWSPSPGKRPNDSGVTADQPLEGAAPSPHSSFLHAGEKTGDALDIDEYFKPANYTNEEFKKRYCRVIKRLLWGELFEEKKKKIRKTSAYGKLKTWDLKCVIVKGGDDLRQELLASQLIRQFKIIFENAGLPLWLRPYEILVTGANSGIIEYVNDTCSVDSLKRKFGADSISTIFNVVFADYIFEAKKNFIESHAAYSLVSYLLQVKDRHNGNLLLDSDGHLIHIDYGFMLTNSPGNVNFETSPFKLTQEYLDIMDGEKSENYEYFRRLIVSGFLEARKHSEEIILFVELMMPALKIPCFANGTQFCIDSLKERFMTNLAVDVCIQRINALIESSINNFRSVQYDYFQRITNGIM
Compound,"IC50 [1, 6]",solubility at 20 h [2],IC50 (PvPI4K),"IC50 ([3]; Cricetulus griseus, CHO)",other results
"FC(F)(F)c1ccc(-c2ccc3nccc(N[C@H]4CCNC4)c3n2)cn1 [Compound 15, N-[(3S)-Pyrrolidin-3-yl]-6-[6-(trifluoromethyl)pyridin-3-yl]-1,5-naphthyridin-4-amine]",70 ± 13 nM,200 µM,164 ± 69 nM,46 µM,
"CC(=O)N[C@@H]1CCN(c2ccnc3ccc(-c4cccc(S(C)(=O)=O)c4)nc23)C1 [Compound 10, N-[(3R)-1-[6-(3-Methylsulfonylphenyl)-1,5-naphthyridin-4-yl]pyrrolidin-3-yl]acetamide]",890 ± 57 nM,185 µM,76 ± 6 nM,,
"OCCN1CCC(Nc2ccnc3ccc(-c4ccc(C(F)(F)F)nc4)nc23)CC1 [Compound 22, 2-[4-[[6-[6-(Trifluoromethyl)pyridin-3-yl]-1,5-naphthyridin-4-yl]amino]piperidin-1-yl]ethanol]",253 ± 2 nM,145 µM,303 ± 74 nM,,"IC50 [4, 7]: 385 ± 41 nM"
"CN1CCC(Nc2cc(=O)[nH]c3ccc(-c4ccc(C(F)(F)F)nc4)nc23)CC1 [Compound 37, 4-[(1-Methylpiperidin-4-yl)amino]-6-[6-(trifluoromethyl)pyridin-3-yl]-1H-1,5-naphthyridin-2-one]",4200 ± 1000 nM,45 µM,> 10000 nM,,
"CS(=O)(=O)c1cccc(-c2ccc3nccc(NC4CCCNC4)c3n2)c1 (stereo not drawn) [Compound 8, 6-(3-Methylsulfonylphenyl)-N-piperidin-3-yl-1,5-naphthyridin-4-amine]",200 ± 2 nM,195 µM,151 ± 72 nM,33.3 µM,IC50 (β-hematin (βH) formation; [8]): > 500 µM
"CCN(CC)CCCC(C)Nc1ccnc2cc(Cl)ccc12 (stereo not drawn) [Chloroquine, reference compound]",,,,,IC50 (β-hematin (βH) formation): 21 ± 2.1 µM
"Cc1nc(C(F)(F)F)ccc1-c1ccc2nccc(NC3CCN(C)CC3)c2n1 [Compound 31, N-(1-Methylpiperidin-4-yl)-6-[2-methyl-6-(trifluoromethyl)pyridin-3-yl]-1,5-naphthyridin-4-amine]",499 ± 24 nM,195 µM,174 ± 102 nM,> 50 µM,"IC50 [4, 7]: 367 ± 5 nM"
"CS(=O)(=O)c1cccc(-c2ccc3nccc(N4CC[C@@H](NC(N)=O)C4)c3n2)c1 [Compound 11, [(3R)-1-[6-(3-Methylsulfonylphenyl)-1,5-naphthyridin-4-yl]pyrrolidin-3-yl]urea]",630 ± 133 nM,,39 ± 7 nM,,
"CS(=O)(=O)c1ccc(-c2cnc(N)c(-c3ccc(C(F)(F)F)nc3)c2)cc1 [MMV390048, reference compound]",36 nM,,,,"IC50 ([5]; Plasmodium falciparum, 72 h, read-out: ABS IC50 for PfPI4K cKD, N=1, +aTc, experiment N=1, +aTc (500 nM, control conditions), 72 hours): 31 nM; IC50 ([5]; Plasmodium falciparum, 72 h, read-out: ABS IC50 for PfPI4K cKD, N=1, no aTc, experiment N=1, no aTc (PI4K knockdown), 72 hours): 4 nM; IC50 ([5]; Plasmodium falciparum, 72 h, read-out: ABS IC50 for PfPI4K cKD, N=2, +aTc, experiment N=2, +aTc (500 nM, control conditions), 72 hours): 29 nM; IC50 ([5]; Plasmodium falciparum, 72 h, read-out: ABS IC50 for PfPI4K cKD, N=2, no aTc, experiment N=2, no aTc (PI4K knockdown), 72 hours): 4.31 nM; IC50 ([5]; Plasmodium falciparum, 72 h, read-out: ABS IC50 for PfPI4K cKD, N=3, +aTc, experiment N=3, +aTc (500 nM, control conditions), 72 hours): 25 nM; IC50 ([5]; Plasmodium falciparum, 72 h, read-out: ABS IC50 for PfPI4K cKD, N=3, no aTc, experiment N=3, no aTc (PI4K knockdown), 72 hours): 3.48 nM; IC50 ([5]; Plasmodium falciparum, read-out: ABS IC50 for PfPI4K cKD, Mean + SD, +aTc, mean of N=3, +aTc (control conditions)): 26 ± 3 nM; IC50 ([5]; Plasmodium falciparum, read-out: ABS IC50 for PfPI4K cKD, Mean + SD, no aTc, mean of N=3, no aTc (PI4K knockdown)): 3.7 ± 0.4 nM; IC50 ([5]; read-out: ABS IC50 for PfPI4K cKD, N=1, +aTc, experiment N=1, +aTc (500 nM, control conditions), 72 hours): 27 nM; IC50 ([5]; read-out: ABS IC50 for PfPI4K cKD, N=2, +aTc, experiment N=2, +aTc (500 nM, control conditions), 72 hours): 21 nM; IC50 ([5]; read-out: ABS IC50 for PfPI4K cKD, N=2, no aTc, experiment N=2, no aTc (PI4K knockdown), 72 hours): 3.39 nM; IC50 ([5]; read-out: ABS IC50 for PfPI4K cKD, N=3, +aTc, experiment N=3, +aTc (500 nM, control conditions), 72 hours): 23 nM; IC50 ([5]; read-out: ABS IC50 for PfPI4K cKD, N=3, no aTc, experiment N=3, no aTc (PI4K knockdown), 72 hours): 3.31 nM"
"FC(F)(F)c1ccc(-c2ccc3nccc(NC4CCCNC4)c3n2)cn1 (stereo not drawn) [Compound 12, N-Piperidin-3-yl-6-[6-(trifluoromethyl)pyridin-3-yl]-1,5-naphthyridin-4-amine]",90 ± 1 nM,195 µM,276 ± 33 nM,43 µM,IC50 (β-hematin (βH) formation; [8]): 66 ± 1 µM
"(R)-6-(6-Methoxypyridin-3-yl)-N-(pyrrolidin-3-yl)-1,5-naphthyridin-4-amine [Compound 34]",,,111 ± 69 nM,,IC50 [4]: 667 ± 60 nM; IC50 [1]: 225 ± 7 nM; IC50 [3]: 17 µM
"FC(F)(F)c1ccc(-c2ccc3nccc(OC4CCNCC4)c3n2)cn1 [Compound 19, 8-Piperidin-4-yloxy-2-[6-(trifluoromethyl)pyridin-3-yl]-1,5-naphthyridine]",3850 ± 954 nM,,265 ± 160 nM,,IC50 (β-hematin (βH) formation; [8]): 94 ± 3 µM
"CS(=O)(=O)c1cccc(-c2ccc3nccc(N4CC[C@@H](N)C4)c3n2)c1 [Compound 9, (3R)-1-[6-(3-Methylsulfonylphenyl)-1,5-naphthyridin-4-yl]pyrrolidin-3-amine]",100 ± 5 nM,200 µM,199 ± 37 nM,22 µM,
